In patent US20220017871A1, “UNDIFFERENTIATED STATE-MAINTAINING CULTURE MEDIUM FOR PLURIPOTENT STEM CELLS” (Kanto Kagaku Kabushiki Kaisha, priority 2018, published 2022):

Legend:
iPS cells = assay: Measurement of intracellular ROS (DCFH-DA staining, flow cytometer); assay type: cell-based, human; conditions: versus medium with no additive (100%)
Procedure: In each of the basal medium with no additive and the albumin-added medium, cells were dispersed into single-cells, and after 1 hours, for each case, cells were fluorescently stained with DCFH-DA, and fluorescence intensity was measured using a flow cytometer.
Cells were cultured in the control media or in the medium to which the respective component had been added, then dispersed into single-cells. For each case, cells were fluorescently stained with DCFH-DA, and the fluorescence intensity was measured using a flow cytometer.

[1] = tested on: Human iPS cell line 253G1; assay: Confirmation of cell morphology by phase-contrast microscopy; assay type: cell-based; conditions: third day of culturing; additive in basal medium (albumin 1 g/100 mL; NAC 8.2 mg/100 mL); spindle = good condition, globular = bad
Procedure: (§1) Human iPS cell line 253G1 was washed with PBS, then treated with an equivalent mixture solution of TrypLE Select (ThermoScientific) and 0.5 mM EDTA at 37° C. for 5 minutes to be dispersed into single-cells, and collected.
The morphology of cells on the third day of culturing in the basal medium with no additive and in the albumin-added medium was observed by phase-contrast microscopy.
The morphology of cells on the third day of culturing in the control medium and in the N-acetyl-L-cysteine-added medium as a representative of 5 types of antioxidants was observed by phase-contrast microscopy.

[2] = tested on: Human iPS cell line 253G1; assay: Comparison of proliferating rate in media with each added component; assay type: cell-based; conditions: 7 days culture; NAC 8.2 mg and/or PVA 0.25 g per 100 mL basal medium; basal medium only = 1; n=3
Procedure: To 100 mL of the basal medium, either only 8.2 mg of N-acetyl-L-cysteine was added, only 0.25 g of polyvinyl alcohol was added, or 8.2 mg of N-acetyl-L-cysteine and 0.25 g of polyvinyl alcohol were added.
as §1
The culture was carried out in the basal medium with no additive prepared as a control, and in a medium to which only N-acetyl-L-cysteine was added, in a medium to which only polyvinyl alcohol was added, or in a medium to which N-acetyl-L-cysteine and polyvinyl alcohol were added (n=3).

[3] = tested on: Human iPS cell line 253G1; assay: Confirming cell attachment (crystal violet staining); assay type: cell-based; conditions: 7 days culture; 0.25 g polymer or 1 g albumin per 100 mL basal medium; iMatrix-511 coated 6-well plate; n=3
Procedure: as §1
The culture was carried out in the basal medium with no additive and an albumin-added medium prepared as controls, and in a medium to which polyvinyl alcohol and in a medium to which polyvinylpyrrolidone was added (n=3).
Each of the cultured cell was stained with crystal violet and the adherence of the cells was confirmed under phase-contrast microscopy.

[4] = Example 1, antioxidant added to 100 mL basal medium (NAC 163 mg, GSH 307 mg)

Row | Compound | decrease in intracellular ROS level (iPS cells; [4]) | cell morphology [1] | increase in relative proliferating rate [2] | decrease in intracellular ROS level (iPS cells; Comparative Example 1, 1 g albumin per 100 mL basal medium, 1 hour after dispersion into single cells) | adherence of cells to culture container [3]
1 | CC(=O)N[C@@H](CS)C(=O)O [N-acetyl-L-cysteine] | approximately 50% | spindle shape | approximately 1.4 fold |  | 
2 | N[C@@H](CCC(=O)N[C@@H](CS)C(=O)NCC(=O)O)C(=O)O [reduced glutathione] | approximately 50% |  |  |  | 
3 | albumin |  | spindle shape |  | approximately 60% | stained cells were confirmed all over the culture container
